Results reported in US5319096A, “(1H-indol-1-yl)-2-(amino) acetamides and related (1H-indol-1-yl)-(aminoalkyl)amides, pharmaceutical composition and use” (Hoechst-Roussel Pharmaceuticals Inc., priority 1992, dated 1994).
Counter-ions that a name gives are not always drawn.

How the values were obtained:
[1] = test system: striatal neurons, infusion of quinolinate; conditions: 100 mg/kg, i.p., 1 hour after infusion of quinolinate; cited from earlier work
[2] = test system: direct infusion of NMDA or quinolinate into the rat striatum; conditions: cited from earlier work
[3] = test system: NMDA-induced Striatal Lesion; test: Protection Against NMDA-induced Striatal Lesion (% control enzyme activity, lesioned vs contralateral striatum); assay type: in vivo, Male Sprague Dawley rats; conditions: ip, NMDA 150 nanomoles, 7 days post surgery; for % Control Enzyme Activity ChAT: choline acetyltransferase; for % Control Enzyme Activity GAD: glutamic acid decarboxylase
Source text: Glutamate, aspartate and other excitatory amino acids (EAA) are putative neurotransmitters at vertebrate CNS excitatory synapses. […] The neurotoxicity of EAA has led to the implication of their involvement in human neurodegenerative disorders such as Alzheimer's Disease. Subacute or chronic overexposure to endogenous neurotoxin may lead to the slow degeneration of neurons (Olney, J., Excitotoxic Amino Acids and Neuropsychiatric Disorders. Annu. Rev. Pharmacol. Toxicol. 30:47-71, 1990). […] The striatal lesion paradigm can be used to assess the neuroprotective potential of novel compounds.
Testing of the compounds was carried out as follows: Male Sprague Dawley rats (Charles River) are housed under standard laboratory conditions as outlined in the "Guide for the Care and Use of Laboratory Animals" (National Institutes of Health Publications No. 85-23, Revised 1985). Food and water were provided ad libitum; lights were on from 0600-1800 h. Sterile techniques were used during surgery.
Rats (250-320 g) were anesthetized with chloral hydrate (400 mg/kg i.p., 10 ml/kg) and mounted in a David Kopf® stereotaxic instrument. An incision was made in the scalp and the skull surface was exposed. All coordinates were taken from the point on the skull where bregma meets the midline suture. The adjustable incisor bar was set at 3.3 mm below horizontal but may be adjusted. A 1-2 mm burr hole in the skull was made with a dental drill 0.5 mm anterior to bregma and 3.0 mm lateral from the midline (Paxinos, G. and Watson, C., The Rat Brain in Stereotaxic Coordinates. New York: Academic Press, 2nd ed., 1986). […] The cannula remained in place for one minute before infusion began. A total volume of 1 μl of NMDA (150 nanomoles per μl) solution was infused slowly (0.2 μl/2 min, total time of infusion was 10 min). The cannula remained in place for 5 minutes and then was slowly withdrawn (approx. 0.1 mm every 12 sec). NMDA was dissolved in 0.1M sodium phosphate buffer, pH 7.4. An equally osmolar solution of sodium chloride was used as a control in the contralateral striatum. The burr hole was sealed with bone wax and the scalp sutured closed.
The animals were sacrificed by decapitation seven days following surgery. The striatum was dissected over ice. […]
The experimental compounds were dissolved in 0.9% NaCl or appropriate vehicle and administered i.p. either pre- and/or post-excitotoxin infusion. […] Analysis of variance was calculated by the Newman-Keuls test with the PHARM/PCS computer program (Tallarida, R. J. and Murray, R. B., Manual of Pharmacologic Calculations with Computer Programs, Springer-Verlag, New York, 1987).

[4] = test system: neurodegeneration in the rat striatum caused by intracerebral infusion of NMDA; conditions: cited from earlier work
[5] = test system: global ischemia in the gerbil; conditions: cited from earlier work

Structure (SMILES): O=C(O)C1CN(CCCP(=O)(O)O)CCN1 (stereo not drawn) [CPP]
- protection of striatal neurons [1]: partial protection of striatal neurons

Structure (SMILES): NC1CCN(O)C1=O (stereo not drawn) [HA-966, 3-amino-1-hydroxypyrrolid-2-one]
- neuroprotection [2]: significant neuroprotection

Structure (SMILES): C[C@]12N[C@H](Cc3ccccc31)c1ccccc12 [dizocilpine]
- % Control Enzyme Activity ChAT ([3]; 10 mg/kg, pretreatment 60 min): 104 % Control
- % Control Enzyme Activity GAD ([3]; 10 mg/kg, pretreatment 60 min): 110 % Control
- protection against neurodegeneration in the rat striatum [4]: protected against neurodegeneration in the rat striatum

Structure (SMILES): NS(=O)(=O)c1cccc2c1c([N+](=O)[O-])cc1nc(O)c(O)nc12 [NBQX, 2,3-Dihydroxy-6-nitro-7-sulfamoylbenzo(F)quinoxaline]
- protection against global ischemia [5]: protects against global ischemia in the gerbil

Structure (SMILES): O=C(O)c1cc(O)c2ccc(Cl)cc2n1 [7-Chlorokynurenate]
- neuroprotection [2]: significant neuroprotection

Structure (SMILES): NCC(=O)Nn1ccc2ccccc21 [[N-(1H-Indol-1-yl)-2-amino]acetamide hydrochloride]
- % Control Enzyme Activity ChAT ([3]; 100 mg/kg, pretreatment 30 min): 68 % Control
- % Control Enzyme Activity GAD ([3]; 100 mg/kg, pretreatment 30 min): 63 % Control
